Assay results taken from ChEMBL document CHEMBL1201862, “PubChem BioAssay data set” (2004).
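Dose response: 5 concentrations. Exposure: 48 h. Format: 96-well plates. Endpoint: linear interpolation; highest concentration if not reached. At the GI50, growth is halved.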 Calls of active or inactive are those of the source. No stated cut-off is given here; in the data, active = GI50 up to about 1.1 µM and inactive = higher.

How the values were obtained:
Assay in all cases: growth of human tumour cells (NCI), 48 h
HT-29 = system: HT-29
HCC 2998 = system: HCC 2998
HCT-116 = system: HCT-116
K562 = system: K562
OVCAR-3 = system: OVCAR-3
SK-MEL-5 = system: SK-MEL-5
SK-MEL-28 = system: SK-MEL-28
CAKI-1 = system: CAKI-1
SR = system: SR
RXF 393 = system: RXF 393
HCT-15 = system: HCT-15
IGROV-1 = system: IGROV-1
NCI-H226 = system: NCI-H226
SN12C = system: SN12C
DU-145 = system: DU-145
UACC-257 = system: UACC-257
EKVX = system: EKVX
NCI-H522 = system: NCI-H522
ACHN = system: ACHN
HOP-92 = system: HOP-92

For `CCOC(=O)NNC(=O)NCc1ccccc1CNC(=O)NNC(=O)OCC`, the GI50 (HT-29) was > 100 µM (inactive), the GI50 (HCC 2998) was > 100 µM (inactive) and the GI50 (HCT-116) was > 100 µM (inactive). For the same compound, the GI50 (K562) was > 100 µM (inactive), the GI50 (OVCAR-3) was > 100 µM (inactive) and the GI50 (SK-MEL-5) was > 100 µM (inactive). The GI50 (SK-MEL-28) was > 100 µM (inactive), the GI50 (CAKI-1) was > 100 µM (inactive) and the GI50 (SR) was > 100 µM (inactive). For the same compound, the GI50 (RXF 393) was > 100 µM (inactive), the GI50 (HCT-15) was > 100 µM and the GI50 (IGROV-1) was > 100 µM (inactive). For the same compound, the GI50 (NCI-H226) was > 100 µM (inactive), the GI50 (SN12C) was > 100 µM (inactive) and the GI50 (DU-145) was > 100 µM (inactive). The GI50 (UACC-257) was > 100 µM (inactive), the GI50 (EKVX) was > 100 µM (inactive) and the GI50 (NCI-H522) was > 100 µM (inactive).
In the case of `CN1CCCN(C)CCCN(C)CCCN(C)CCC1`, the GI50 (HT-29) is reported as > 100 µM (inactive), the GI50 (HCC 2998) is reported as > 100 µM (inactive) and the GI50 (HCT-116) is reported as > 100 µM (inactive). For the same compound, the GI50 (K562) was > 100 µM (inactive), the GI50 (OVCAR-3) was > 100 µM (inactive) and the GI50 (SK-MEL-5) was > 100 µM (inactive). For the same compound, the GI50 (SK-MEL-28) was > 100 µM (inactive), the GI50 (CAKI-1) was > 100 µM (inactive) and the GI50 (ACHN) was > 100 µM (inactive). For the same compound, the GI50 (SR) was > 100 µM (inactive), the GI50 (RXF 393) was > 100 µM (inactive) and the GI50 (HCT-15) was > 100 µM. The GI50 (IGROV-1) was > 100 µM (inactive), the GI50 (NCI-H226) was > 100 µM (inactive) and the GI50 (DU-145) was > 100 µM (inactive). The GI50 (UACC-257) was > 100 µM (inactive), the GI50 (EKVX) was > 100 µM (inactive) and the GI50 (NCI-H522) was > 100 µM (inactive).
`CCOC(=O)c1c(-c2ccc(OC)cc2)c(C#N)c(=S)n(C2OC(CO)C(O)C(O)C2O)c1-c1ccccc1` (stereo not drawn) was tested, and the GI50 (HT-29) was 40.6 µM (inactive), the GI50 (HCC 2998) was 39.6 µM (inactive) and the GI50 (HCT-116) was 27.2 µM (inactive). The GI50 (K562) was 34.4 µM (inactive), the GI50 (OVCAR-3) was 24.6 µM (inactive) and the GI50 (SK-MEL-5) was 13.3 µM (inactive). The GI50 (SK-MEL-28) was 50.4 µM (inactive), the GI50 (CAKI-1) was 50.7 µM (inactive) and the GI50 (ACHN) was 54.7 µM (inactive). For the same compound, the GI50 (SR) was 54.7 µM (inactive), the GI50 (RXF 393) was 26.2 µM (inactive) and the GI50 (HCT-15) was 56 µM. The GI50 (IGROV-1) was 59.6 µM (inactive), the GI50 (SN12C) was 42.7 µM (inactive) and the GI50 (DU-145) was 48.4 µM (inactive). For the same compound, the GI50 (UACC-257) was > 100 µM (inactive) and the GI50 (HOP-92) was 6.85 µM (inactive).
For `NS(=O)(=O)c1ccc(/N=N/c2cc3ccccc3c(C(=O)O)c2O)cc1`, the GI50 (HT-29) was > 55.7 µM (inactive), the GI50 (HCT-116) was 12.6 µM (inactive) and the GI50 (K562) was > 100 µM (inactive). For the same compound, the GI50 (OVCAR-3) was > 47.8 µM (inactive), the GI50 (SK-MEL-5) was > 59.2 µM (inactive) and the GI50 (SK-MEL-28) was > 60.1 µM (inactive). The GI50 (CAKI-1) was > 100 µM (inactive), the GI50 (ACHN) was 15.7 µM (inactive) and the GI50 (SR) was 2.31 µM (inactive). For the same compound, the GI50 (RXF 393) was > 46.2 µM (inactive), the GI50 (HCT-15) was > 49.7 µM and the GI50 (IGROV-1) was 41.6 µM (inactive). The GI50 (NCI-H226) was > 100 µM (inactive), the GI50 (SN12C) was > 78.3 µM (inactive) and the GI50 (DU-145) was > 46 µM (inactive). The GI50 (UACC-257) was > 58.2 µM (inactive), the GI50 (EKVX) was > 100 µM (inactive) and the GI50 (NCI-H522) was > 41 µM (inactive). The GI50 (HOP-92) was 99.1 µM (inactive).
In the case of `C(=N\c1ccc(-c2nc3ccccc3[nH]2)cc1)/c1cccs1`, the GI50 (HT-29) is reported as > 100 µM (inactive), the GI50 (HCT-116) is reported as > 100 µM (inactive) and the GI50 (K562) is reported as 81.7 µM (inactive). For the same compound, the GI50 (OVCAR-3) was 49.7 µM (inactive), the GI50 (SK-MEL-5) was 54 µM (inactive) and the GI50 (SK-MEL-28) was > 100 µM (inactive). For the same compound, the GI50 (CAKI-1) was > 100 µM (inactive), the GI50 (ACHN) was > 100 µM (inactive) and the GI50 (SR) was 45.3 µM (inactive). For the same compound, the GI50 (RXF 393) was 56.6 µM (inactive), the GI50 (HCT-15) was 84.9 µM and the GI50 (IGROV-1) was 19.8 µM (inactive). For the same compound, the GI50 (NCI-H226) was > 100 µM (inactive), the GI50 (SN12C) was > 100 µM (inactive) and the GI50 (DU-145) was > 100 µM (inactive). The GI50 (UACC-257) was > 100 µM (inactive), the GI50 (EKVX) was > 100 µM (inactive) and the GI50 (NCI-H522) was 62.8 µM (inactive). For the same compound, the GI50 (HOP-92) was 17.7 µM (inactive).
For `COc1cc2c(c(OC)c1)/C(=C/Sc1ccccc1)C(=O)N(C(C)(C)C)C2`, the GI50 (HT-29) was 22.9 µM (inactive), the GI50 (HCC 2998) was 37.8 µM (inactive) and the GI50 (HCT-116) was 16.4 µM (inactive). For the same compound, the GI50 (K562) was 37.8 µM (inactive), the GI50 (OVCAR-3) was 22.5 µM (inactive) and the GI50 (SK-MEL-5) was 17.5 µM (inactive). For the same compound, the GI50 (SK-MEL-28) was 38.9 µM (inactive), the GI50 (CAKI-1) was 32.7 µM (inactive) and the GI50 (ACHN) was 35.3 µM (inactive). For the same compound, the GI50 (SR) was 19.8 µM (inactive), the GI50 (HCT-15) was 30.3 µM and the GI50 (IGROV-1) was 22.3 µM (inactive). The GI50 (NCI-H226) was 51.6 µM (inactive), the GI50 (SN12C) was 24 µM (inactive) and the GI50 (DU-145) was > 100 µM (inactive). For the same compound, the GI50 (UACC-257) was 30.6 µM (inactive), the GI50 (EKVX) was 29.6 µM (inactive) and the GI50 (HOP-92) was 1.41 µM (inactive).
With `Cc1cc(C)c2c(=O)n(CN3CC4Nc5ccccc5C4C3)sc2n1` (stereo not drawn) the GI50 (HT-29) was 21.3 µM (inactive), the GI50 (HCT-116) was 20.4 µM (inactive) and the GI50 (K562) was 27.9 µM (inactive). For the same compound, the GI50 (OVCAR-3) was 33.5 µM (inactive), the GI50 (SK-MEL-5) was 30.2 µM (inactive) and the GI50 (SK-MEL-28) was 22.1 µM (inactive). For the same compound, the GI50 (CAKI-1) was 21 µM (inactive), the GI50 (ACHN) was 17.9 µM (inactive) and the GI50 (SR) was 23.6 µM (inactive). The GI50 (RXF 393) was 22.8 µM (inactive), the GI50 (HCT-15) was 21 µM and the GI50 (IGROV-1) was > 100 µM (inactive). For the same compound, the GI50 (NCI-H226) was 20.8 µM (inactive), the GI50 (SN12C) was 30.7 µM (inactive) and the GI50 (DU-145) was 21.1 µM (inactive). The GI50 (UACC-257) was 15.5 µM (inactive), the GI50 (EKVX) was 26.9 µM (inactive) and the GI50 (NCI-H522) was 4.19 µM (inactive). For the same compound, the GI50 (HOP-92) was 38.5 µM (inactive).
